Source: patent publication US20200055839A1 (priority 2017, published 2020)

Tested on: NL-RLuc virus
Assay: Inhibition of HIV replication (NL-RLuc virus, luciferase readout in MT-2 cells)
Assay type: cell-based
Conditions: Human immunodeficiency virus 1, MT2, 120 h, MT-2 cells infected with NL-RLuc virus, 5 days of incubation, 10% FBS, at least 2 experiments
Source text: Inhibition of HIV Replication:
A recombinant NL-RLuc proviral clone was constructed in which a section of the nef gene form NL4-3 was replaced with the Renilla Luciferase gene. This virus is fully infectious and can undergo multiple cycles of replication in cell culture. In addition, the luciferous reporter provides a simple and easy method for quantitating the extent of virus growth and consequently, the antiviral activity of test compounds. The plasmid pNLRLuc contains the proviral NL-Rluc DNA cloned into pUC18 at the PvuII site. The NL-RLuc virus was prepared by transfection of 293T cells with the plasmid pNLRLuc. Transfections were performed using the LipofectAMINE PLUS kit form Invitrogen (Carlsbad, Calif.) according to the manufacturer and the virus generated was titered in MT-2 cells. For susceptibility analyses, the titrated virus was used to infect MT-2 cells in the presence of compound, and after 5 days of incubation, cells were processed and quantitated for virus growth by the amount of expressed luciferase. Assay media was RPMI 1640 supplemented with 10% heat inactivated fetal bovine serum (FBS), 100 units/ml penicillin G/100 units/ml streptomycin, 10 mM HEPES buffer pH 7.55 and 2 mM L-glutamine. The results form at least 2 experiments were used to calculate the EC50 values. Luciferase was quantitated using the Dual Luciferase kit form Promega (Madison, Wis.). Susceptibility of viruses to compounds was determined by incubation in the presence of serial dilutions of the compound. The 50% effective concentration (EC50) was calculated by using the exponential form of the median effect equation where (Fa)=1/[1+(ED50/drug conc.)^m](Johnson V A, Byington R T. Infectivity Assay. In Techniques in HIV Research. ed. Aldovini A, Walker B D. 71-76. New York: Stockton Press. 1990).

Row | SMILES | EC50
1 | Cc1nc(NCC2CCOCC2)c(-c2ccc(OCCc3ccc(F)cc3)cc2)c(N2CCC(C)(C)CC2)c1[C@H](OC(C)(C)C)C(=O)O [Example 44, (S)-2-(tert-Butoxy)-2-(4-(4,4-dimethylpiperidin-1-yl)-5-(4-(4-fluorophenethoxy)phenyl)-2-methyl-6-(((tetrahydro-2H-pyran-4-yl)methyl)amino)pyridin-3-yl)acetic acid] | 3 nM
2 | CCC(C)(C)O[C@H](C(=O)O)c1c(C)ncc(-c2ccc(OCCc3ccc(F)cc3)cc2)c1N1CCC(C)(C)CC1 [Example 18, (2S)-2-[4-(4,4-Dimethylpiperidin-1-yl)-5-{4-[2-(4-fluorophenyl)ethoxy]phenyl}-2-methylpyridin-3-yl]-2-[(2-methylbutan-2-yl)oxy]acetic acid] | 4 nM
3 | Cc1nc(NC2CCOCC2)c(-c2ccc(OCCc3ccc(F)cc3)cc2)c(N2CCC(C)(C)CC2)c1[C@H](OC(C)(C)C)C(=O)O [Example 24, (S)-2-(tert-Butoxy)-2-(4-(4,4-dimethylpiperidin-1-yl)-5-(4-(4-fluorophenethoxy)phenyl)-2-methyl-6-((tetrahydro-2H-pyran-4-yl)amino)pyridin-3-yl)acetic acid] | 2 nM
4 | Cc1ncc(-c2ncc(OCCc3ccc(F)cc3)cc2F)c(N2CCC(C)(C)CC2)c1[C@H](OC(C)(C)C)C(=O)O [Example 233, (S)-2-(tert-Butoxy)-2-(4′-(4,4-dimethylpiperidin-1-yl)-3-fluoro-5-(4-fluorophenethoxy)-6′-methyl-[2, 3′-bipyridin]-5′-yl)acetic acid] | 2 nM
5 | Cc1ncc(-c2ccc(OCCc3ccccc3F)cn2)c(N2CCC(C)(C)CC2)c1[C@H](OC(C)(C)C)C(=O)O [Example 303, (2S)-2-(tert-butoxy)-2-[4′-(4,4-dimethylpiperidin-1-yl)-5-[2-(2-fluorophenyl)ethoxy]-6′-methyl-[2,3′-bipyridine]-5′-yl]acetic acid] | 0.6 nM
6 | Cc1nc(NCCCN2CCCCC2)c(-c2ccc(OCCc3ccc(F)cc3)cc2)c(N2CCC(C)(C)CC2)c1[C@H](OC(C)(C)C)C(=O)O [Example 35, (S)-2-(tert-Butoxy)-2-(4-(4,4-dimethylpiperidin-1-yl)-5-(4-(4-fluorophenethoxy)phenyl)-2-methyl-6-((3-(piperidin-1-yl)propyl)amino)pyridin-3-yl)acetic acid] | 1 nM
7 | Cc1nc(N)c(-c2cnc(OCCc3cccc(F)c3)c(F)c2)c(N2CCC(C)(C)CC2)c1[C@H](OC(C)(C)C)C(=O)O [Example 116, (S)-2-(2-Amino-4-(4,4-dimethylpiperidin-1-yl)-5′-fluoro-6′-(3-fluorophenethoxy)-6-methyl-[3, 3′-bipyridin]-5-yl)-2-(tert-butoxy)acetic acid] | 1 nM
8 | Cc1ncc(-c2ccc(OC(C)C)c(F)c2F)c(N2CCC(C)(C)CC2)c1[C@H](OC(C)(C)C)C(=O)O [Example 169, (2S)-2-(tert-Butoxy)-2-{5-[2,3-difluoro-4-(propan-2-yloxy)phenyl]-4-(4,4-dimethylpiperidin-1-yl)-2-methylpyridin-3-yl}acetic acid] | 7 nM
9 | Cc1nc(NCCN2CCOCC2)c(-c2ccc(OCCc3ccc(F)cc3)cc2)c(N2CCC(C)(C)CC2)c1[C@H](OC(C)(C)C)C(=O)O [Example 26, (S)-2-(tert-Butoxy)-2-(4-(4,4-dimethylpiperidin-1-yl)-5-(4-(4-fluorophenethoxy)phenyl)-2-methyl-6-((2-morpholinoethyl)amino)pyridin-3-yl)acetic acid] | 0.5 nM
10 | Cc1cccc(Nc2nc(C)c([C@H](OC(C)(C)C)C(=O)O)c(N3CCC(C)(C)CC3)c2-c2ccc(OCCc3ccc(F)cc3)cc2)n1 [Example 80, (S)-2-(tert-Butoxy)-2-(4-(4,4-dimethylpiperidin-1-yl)-5-(4-(4-fluorophenethoxy)phenyl)-2-methyl-6-((6-methylpyridin-2-yl)amino)pyridin-3-yl)acetic acid] | 2 nM
11 | Cc1ncc(-c2cnc(OCCc3ccc(Cl)cc3Cl)c(F)c2)c(N2CCC(C)(C)CC2)c1[C@H](OC(C)(C)C)C(=O)O [Example 234, (S)-2-(tert-Butoxy)-2-(6′-(2,4-dichlorophenethoxy)-4-(4,4-dimethylpiperidin-1-yl)-5′-fluoro-6-methyl-[3, 3′-bipyridin]-5-yl)acetic acid] | 4 nM
12 | Cc1ncc(-c2cnc(OCCc3ccc(F)cc3)c(Cl)c2)c(N2CCC(C)(C)CC2)c1[C@H](OC(C)(C)C)C(=O)O [Example 250, (S)-2-(tert-Butoxy)-2-(5′-chloro-4-(4,4-dimethylpiperidin-1-yl)-6′-(4-fluorophenethoxy)-6-methyl-[3, 3′-bipyridin]-5-yl)acetic acid] | 2 nM
13 | COc1c(Cl)cccc1-c1cnc(C)c([C@H](OC(C)(C)C)C(=O)O)c1N1CCC(C)(C)CC1 [Example 152, (2S)-2-(tert-Butoxy)-2-[5-(3-chloro-2-methoxyphenyl)-4-(4,4-dimethylpiperidin-1-yl)-2-methylpyridin-3-yl]acetic acid] | 60 nM
14 | COc1nc(OCC(C)C)ccc1-c1cnc(C)c([C@H](OC(C)(C)C)C(=O)O)c1N1CCC(C)(C)CC1 [Example 413, (S)-2-(tert-Butoxy)-2-(4-(4,4-dimethylpiperidin-1-yl)-6′-isobutoxy-2′-methoxy-6-methyl-[3,3′-bipyridin]-5-yl)acetic acid] | 16 nM
15 | Cc1ncc(-c2ccc(OCCc3ccccc3F)c(F)c2)c(N2CCC(C)(C)CC2)c1[C@H](OC(C)(C)C)C(=O)O [Example 128, (S)-2-(tert-Butoxy)-2-(4-(4,4-dimethylpiperidin-1-yl)-5-(3-fluoro-4-(2-fluorophenethoxy)phenyl)-2-methylpyridin-3-yl)acetic acid] | 2 nM
16 | Cc1nc(N)c(-c2ccc(OCCc3ccc(F)cc3)c(F)c2)c(N2CCC(C)(C)CC2)c1[C@H](OC(C)(C)C)C(=O)O [Example 73, (S)-2-(6-Amino-4-(4,4-dimethylpiperidin-1-yl)-5-(3-fluoro-4-(4-fluorophenethoxy)phenyl)-2-methylpyridin-3-yl)-2-(tert-butoxy)acetic acid] | 1 nM
17 | Cc1ccc(-c2cnc(C)c([C@H](OC(C)(C)C)C(=O)O)c2N2CCC(C)(C)CC2)c(F)c1F [Example 159, (2S)-2-(tert-Butoxy)-2-[5-(2,3-difluoro-4-methylphenyl)-4-(4,4-dimethylpiperidin-1-yl)-2-methylpyridin-3-yl]acetic acid] | 2 nM
18 | COc1ccc(F)cc1-c1cnc(C)c([C@H](OC(C)(C)C)C(=O)O)c1N1CCC(C)(C)CC1 [Example 151, (2S)-2-(tert-Butoxy)-2-[4-(4,4-dimethylpiperidin-1-yl)-5-(5-fluoro-2-methoxyphenyl)-2-methylpyridin-3-yl]acetic acid] | 6 nM
19 | CC1(C)CCN(c2c(-c3ccc(OCCc4ccc(F)cc4)cc3)cnc(C#N)c2[C@H](OC(C)(C)C)C(=O)O)CC1 [Example 222, (S)-2-(tert-Butoxy)-2-(2-cyano-4-(4,4-dimethylpiperidin-1-yl)-5-(4-(4-fluorophenethoxy)phenyl)pyridin-3-yl)acetic acid] | 8 nM
20 | Cc1ncc(-c2ccc(OCC(C)C)cn2)c(N2CCC(C)(C)CC2)c1[C@H](OC(C)(C)C)C(=O)O [Example 312, (2S)-2-(tert-butoxy)-2-[4′-(4,4-dimethylpiperidin-1-yl)-6′-methyl-5-(2-methylpropoxy)-[2,3′-bipyridine]-5′-yl]acetic acid] | 1 nM
21 | CCCCOc1ncc(-c2cnc(C)c([C@H](OC(C)(C)C)C(=O)O)c2N2CCC(C)(C)CC2)cc1F [Example 377, (2S)-2-(tert-butoxy)-2-[6′-butoxy-4-(4,4-dimethylpiperidin-1-yl)-5′-fluoro-6-methyl-[3,3′-bipyridine]-5-yl]acetic acid] | 4 nM
22 | Cc1nc(N)c(-c2cc(F)c(F)c(F)c2)c(N2CCC(C)(C)CC2)c1[C@H](OC(C)(C)C)C(=O)O [Example 58, (S)-2-(6-Amino-4-(4,4-dimethylpiperidin-1-yl)-2-methyl-5-(3,4,5-trifluorophenyl)pyridin-3-yl)-2-(tert-butoxy)acetic acid] | 18 nM

Same assay, conditions: MT-2 cells infected with NL-RLuc virus, 5 days of incubation, 10% FBS, at least 2 experiments

Row | SMILES | EC50
23 | Cc1nc(Nc2ccnc(F)c2)c(-c2ccc(OCCc3ccc(F)cc3)cc2)c(N2CCC(C)(C)CC2)c1[C@H](OC(C)(C)C)C(=O)O [Example 95, (S)-2-(tert-Butoxy)-2-(4-(4,4-dimethylpiperidin-1-yl)-5-(4-(4-fluorophenethoxy)phenyl)-6-((2-fluoropyridin-4-yl)amino)-2-methylpyridin-3-yl)acetic acid] | 8 nM
24 | Cc1nc(Nc2ccnc(F)c2)c(-c2ccc(OCCc3ccc(F)cc3)cc2)c(N2CCC(C)(C)CC2)c1[C@H](OC(C)(C)C)C(=O)O [Example 96, (S)-2-(tert-Butoxy)-2-(4-(4,4-dimethylpiperidin-1-yl)-5-(4-(4-fluorophenethoxy)phenyl)-6-((2-fluoropyridin-4-yl)amino)-2-methylpyridin-3-yl)acetic acid] | 21 nM
